± gives the expanded uncertainty stated by the source.
Details: 283.14 K, Liquid, Vibrating tube method

CCCCCCCCCC [decane]
Details | mass density [kg/m3]
6497 kPa | 742.2 ± 2
6519 kPa | 742.2 ± 2
6543 kPa | 742.1 ± 2
6560 kPa | 742.2 ± 2
6588 kPa | 742.2 ± 2
6610 kPa | 742.2 ± 2
7156 kPa | 742.7 ± 2
7171 kPa | 742.6 ± 2
7221 kPa | 742.7 ± 2
7240 kPa | 742.6 ± 2
7671 kPa | 742.8 ± 2
7684 kPa | 742.9 ± 2
7747 kPa | 743 ± 2
7758 kPa | 743 ± 2
7770 kPa | 743 ± 2
8186 kPa | 743.2 ± 2
8201 kPa | 743.4 ± 2
8217 kPa | 743.3 ± 2
8232 kPa | 743.3 ± 2
8252 kPa | 743.3 ± 2
8265 kPa | 743.3 ± 2
8279 kPa | 743.3 ± 2
8296 kPa | 743.4 ± 2
8848 kPa | 743.8 ± 2
8878 kPa | 743.7 ± 2
8907 kPa | 743.7 ± 2
8922 kPa | 743.8 ± 2
8936 kPa | 743.9 ± 2
8949 kPa | 743.7 ± 2
8964 kPa | 743.9 ± 2
8980 kPa | 743.8 ± 2
8992 kPa | 743.9 ± 2
9004 kPa | 743.8 ± 2
9019 kPa | 743.8 ± 2
9029 kPa | 743.9 ± 2
9038 kPa | 743.8 ± 2
9050 kPa | 743.9 ± 2
9059 kPa | 743.9 ± 2
9071 kPa | 743.8 ± 2
9080 kPa | 743.9 ± 2
9717 kPa | 744.3 ± 2
10364 kPa | 744.7 ± 2
10421 kPa | 744.9 ± 2
10435 kPa | 744.9 ± 2
10472 kPa | 744.9 ± 2
10482 kPa | 744.8 ± 2
10525 kPa | 744.9 ± 2
10552 kPa | 744.9 ± 2
10563 kPa | 744.8 ± 2
10574 kPa | 745 ± 2
10588 kPa | 744.9 ± 2
10597 kPa | 744.9 ± 2
10608 kPa | 745 ± 2
10620 kPa | 745 ± 2
10631 kPa | 745 ± 2
10646 kPa | 745 ± 2
10659 kPa | 745 ± 2
10673 kPa | 745 ± 2
10999 kPa | 745.3 ± 2
11564 kPa | 745.6 ± 2
11578 kPa | 745.6 ± 2
11593 kPa | 745.6 ± 2
11608 kPa | 745.6 ± 2
11694 kPa | 745.7 ± 2
11712 kPa | 745.6 ± 2
11728 kPa | 745.8 ± 2
11741 kPa | 745.7 ± 2
11759 kPa | 745.7 ± 2
13134 kPa | 746.6 ± 2
13157 kPa | 746.7 ± 2
13176 kPa | 746.7 ± 2
13196 kPa | 746.7 ± 2
13216 kPa | 746.6 ± 2
13236 kPa | 746.7 ± 2
13256 kPa | 746.6 ± 2
13276 kPa | 746.7 ± 2
13296 kPa | 746.7 ± 2
13358 kPa | 746.8 ± 2
13379 kPa | 746.8 ± 2
13400 kPa | 746.9 ± 2
13421 kPa | 746.8 ± 2
13438 kPa | 746.8 ± 2
13465 kPa | 746.8 ± 2
13489 kPa | 746.9 ± 2
13507 kPa | 746.8 ± 2
13528 kPa | 746.8 ± 2
13546 kPa | 746.8 ± 2
13574 kPa | 746.9 ± 2
13613 kPa | 747 ± 2
14239 kPa | 747.3 ± 2
14264 kPa | 747.4 ± 2
14287 kPa | 747.4 ± 2
14316 kPa | 747.4 ± 2
14335 kPa | 747.4 ± 2
14461 kPa | 747.5 ± 2
15158 kPa | 748 ± 2
15181 kPa | 747.9 ± 2
15201 kPa | 748.1 ± 2
15221 kPa | 748 ± 2
15259 kPa | 748.1 ± 2
15288 kPa | 748 ± 2
15328 kPa | 748 ± 2
16053 kPa | 748.5 ± 2
17575 kPa | 749.4 ± 2
17600 kPa | 749.6 ± 2
17681 kPa | 749.6 ± 2
18272 kPa | 750 ± 2
18327 kPa | 750.1 ± 2
18353 kPa | 749.9 ± 2
18410 kPa | 750.1 ± 2
18436 kPa | 750.1 ± 2
18466 kPa | 750.1 ± 2
18497 kPa | 750.2 ± 2
18520 kPa | 750.2 ± 2
18543 kPa | 750.1 ± 2
18605 kPa | 750.2 ± 2
18628 kPa | 750.2 ± 2
19272 kPa | 750.6 ± 2
19319 kPa | 750.6 ± 2
19342 kPa | 750.7 ± 2
19377 kPa | 750.7 ± 2
19413 kPa | 750.7 ± 2
20535 kPa | 751.4 ± 2
20578 kPa | 751.3 ± 2
20601 kPa | 751.5 ± 2
21429 kPa | 752 ± 2
21453 kPa | 752 ± 2
21475 kPa | 751.9 ± 2
21504 kPa | 752 ± 2
21533 kPa | 752 ± 2
21563 kPa | 752.1 ± 2
21589 kPa | 752 ± 2
21622 kPa | 752.2 ± 2
21647 kPa | 752.1 ± 2
21669 kPa | 752.1 ± 2
21696 kPa | 752 ± 2
21719 kPa | 752.2 ± 2
